# Legend:
# Format in all cases: in vivo, human
# [1] = test system: adult patients with essential tremor; experiment: Example 16 Part B: QUEST total score; details: for QUEST total score, LS mean change from randomization baseline (Day 42): Formula (I) group; for QUEST total score, LS mean change from pre-dose baseline: Part B OLT
# Source text: Patients were scheduled for Safety Follow-up on Day 70 (±1 day) in the clinic for the final clinical trial assessment.
# [2] = test system: adult patients with essential tremor; experiment: Essential tremor trial Example 16 Part B randomized withdrawal phase: TETRAS, mADL, ADL efficacy; design: TETRAS mADL Mean CFB (SD): unit not given here; details: for TETRAS ADL LS Mean CFB / TETRAS CULS LS Mean CFB / TETRAS PS Item 6: Archimedes Spiral (Left) LS Mean CFB / TETRAS PS Item 6: Archimedes Spiral (Right) LS Mean CFB / TETRAS PS Item 7: Handwriting LS Mean CFB / TETRAS PSTS LS Mean CFB / TETRAS ULS LS Mean CFB / TETRAS mADL LS Mean CFB: change from randomization baseline; for TETRAS ADL Mean CFB (SD) / TETRAS CULS CTA (%) / TETRAS PS Item 6: Archimedes Spiral (Left) CTA (%) / TETRAS PS Item 6: Archimedes Spiral (Right) CTA (%) / TETRAS PS Item 7: Handwriting CTA (%) / TETRAS PSTS CTA (%) / TETRAS ULS CTA (%) / TETRAS mADL Mean CFB (SD): from randomization baseline
# Procedure: A two part trial (Part A and Part B as described below) was conducted to study the efficacy, safety, tolerability, and pharmacokinetics of the compound of formula (I) in adult patients with essential tremor (ET).
# Participants were males and females ages 18 and older with a clinical diagnosis of ET. Participants who have a history of any other medical, neurological, or psychiatric condition that may explain or cause tremor were excluded. Participants who have previously received treatment with formula (I) in any clinical trial (including Part A of the current trial for participants enrolling in Part B) were also excluded.
# In Part B, an open label titration phase and a randomized, double-blind, placebo-controlled trial was conducted.
# [3] = Within-participant escalating dose trial Part A: safety and tolerability; details: N = 8
# Procedure: In Part A, an open label trial was conducted.
# [4] = Phase 1 SAD/MAD safety and tolerability of formulation 3; details: single 60 mg without titration, 6 healthy volunteers
# Procedure: This was a 2-part, Phase 1 double blind, placebo controlled trial to assess the safety, tolerability, pharmacokinetics, and pharmacodynamics (including the KSS, the KDT, the SQSQ and 24-hour EEG recordings), of single, ascending (Part A: 20, 40, and 60 mg) and multiple, ascending (Part B: 20 and 40 mg for 8 days) doses of the 20 mg tablet (formulation 3) in healthy participants. […] Variability in Cmax and AUC increased with increasing dose following a single oral dose of the 20 mg tablet formulation (formulation 3) (FIG. 16).
# Adverse events for the doses of 20 and 40 mg were transient and occurred at a rate similar to placebo. The following TEAEs were observed, all of which were mild to moderate: […]
# [5] = Formula (I) group, Day 70 follow-up
# [6] = Part B - RWD, RWAS, Formula (I) group, Day 56
# [7] = Part B - RWD, RWAS, Formula (I) group, Day 70
# [8] = Part B - RWD, RWAS, Formula (I) group, Randomization Baseline (Day 42 post-dose value)
# [9] = Part B RWD, Formula (I) group, Day 56
smiles,measurement,setting,value
"CC(C)(C)NC(=O)CN1CCC(CNC(=O)c2cc(F)cc(Cl)c2)CC1 [compound of formula (I), N-((1-(2-(tert-butylamino)-2-oxoethyl)piperidin-4-yl)methyl)-3-chloro-5-fluorobenzamide]","QUEST total score, LS mean change from randomization baseline (Day 42)",[1]; Day 70 follow-up,1.741
same,"QUEST total score, LS mean change from pre-dose baseline",[1]; Day 7,−0.561
same,"QUEST total score, LS mean change from pre-dose baseline",[1]; Day 21,−5.933
same,"QUEST total score, LS mean change from pre-dose baseline",[1]; Day 42,−8.203
same,"QUEST total score, LS mean change from randomization baseline (Day 42)","[1]; Part B RWD, Day 56",−1.322
same,"TETRAS ADL score, LS mean change from randomization baseline (Day 42)",[2]; [5],3.267
same,"TETRAS combined upper limb score, LS mean change from randomization baseline (Day 42)",[2]; [5],3.156
same,increase in combined upper limb tremor amplitude,[2]; [5],28.1%
same,increase in upper limb tremor amplitude,[2]; [5],27.2%
same,"mADL score, LS mean change from randomization baseline (Day 42)",[2]; [5],4.353
same,"TETRAS upper limb score, LS mean change from randomization baseline (Day 42)","[2]; Formula (I) group, Day 70 follow-up (2 weeks after cessation)",1.653
same,TETRAS ADL LS Mean Difference: Formula (I) - Placebo (95% CI),"[2]; Part B - RWD, RWAS, Day 56","−9.578 (−18.9020, −0.2546)"
same,TETRAS CULS LS Mean Difference: Formula (I) - Placebo (95% CI),"[2]; Part B - RWD, RWAS, Day 56","−1.896 (−8.7365, 4.9451)"
same,TETRAS PSTS LS Mean Difference: Formula (I) - Placebo (95% CI),"[2]; Part B - RWD, RWAS, Day 56","−3.025 (−11.2090, 5.1595)"
same,TETRAS ULS LS Mean Difference: Formula (I) - Placebo (95% CI),"[2]; Part B - RWD, RWAS, Day 56","−0.253 (−4.9188, 4.4129)"
same,TETRAS mADL LS Mean Difference: Formula (I) - Placebo (95% CI),"[2]; Part B - RWD, RWAS, Day 56","−8.439 (−15.3856, −1.4916)"
same,TETRAS ADL LS Mean Difference: Formula (I) - Placebo (95% CI),"[2]; Part B - RWD, RWAS, Day 70","−5.988 (−16.8132, 4.8377)"
same,TETRAS CULS LS Mean Difference: Formula (I) - Placebo (95% CI),"[2]; Part B - RWD, RWAS, Day 70","−0.964 (−6.5938, 4.6660)"
same,TETRAS PSTS LS Mean Difference: Formula (I) - Placebo (95% CI),"[2]; Part B - RWD, RWAS, Day 70","−1.277 (−7.5286, 4.9741)"
same,TETRAS ULS LS Mean Difference: Formula (I) - Placebo (95% CI),"[2]; Part B - RWD, RWAS, Day 70","−0.316 (−3.3765, 2.7441)"
same,TETRAS mADL LS Mean Difference: Formula (I) - Placebo (95% CI),"[2]; Part B - RWD, RWAS, Day 70","−3.236 (−12.3264, 5.8538)"
same,TETRAS ADL LS Mean CFB,[2]; [6],0.877
same,TETRAS CULS LS Mean CFB,[2]; [6],1.525
same,TETRAS PS Item 6: Archimedes Spiral (Left) LS Mean CFB,[2]; [6],0.394
same,TETRAS PS Item 6: Archimedes Spiral (Right) LS Mean CFB,[2]; [6],0.087
same,TETRAS PS Item 7: Handwriting LS Mean CFB,[2]; [6],0.037
same,TETRAS PSTS LS Mean CFB,[2]; [6],1.174
same,TETRAS ULS LS Mean CFB,[2]; [6],0.716
same,TETRAS mADL LS Mean CFB,[2]; [6],1.350
same,TETRAS ADL Mean CFB (SD),[2]; [6],5.84 (16.276)
same,TETRAS CULS CTA (%),[2]; [6],14.7%
same,TETRAS PS Item 6: Archimedes Spiral (Left) CTA (%),[2]; [6],36.5%
same,TETRAS PS Item 6: Archimedes Spiral (Right) CTA (%),[2]; [6],9.5%
same,TETRAS PS Item 7: Handwriting CTA (%),[2]; [6],4.2%
same,TETRAS PSTS CTA (%),[2]; [6],8.1%
same,TETRAS ULS CTA (%),[2]; [6],12.8%
same,TETRAS mADL Mean CFB (SD),[2]; [6],8.45 (34.208)
same,TETRAS ADL LS Mean CFB,[2]; [7],3.267
same,TETRAS CULS LS Mean CFB,[2]; [7],3.156
same,TETRAS PS Item 6: Archimedes Spiral (Left) LS Mean CFB,[2]; [7],0.384
same,TETRAS PS Item 6: Archimedes Spiral (Right) LS Mean CFB,[2]; [7],0.353
same,TETRAS PS Item 7: Handwriting LS Mean CFB,[2]; [7],0.189
same,TETRAS PSTS LS Mean CFB,[2]; [7],3.422
same,TETRAS ULS LS Mean CFB,[2]; [7],1.653
same,TETRAS mADL LS Mean CFB,[2]; [7],4.353
same,TETRAS ADL Mean CFB (SD),[2]; [7],18.73 (24.838)
same,TETRAS CULS CTA (%),[2]; [7],28.1%
same,TETRAS PS Item 6: Archimedes Spiral (Left) CTA (%),[2]; [7],35.8%
same,TETRAS PS Item 6: Archimedes Spiral (Right) CTA (%),[2]; [7],33.4%
same,TETRAS PS Item 7: Handwriting CTA (%),[2]; [7],19.6%
same,TETRAS PSTS CTA (%),[2]; [7],21.8%
same,TETRAS ULS CTA (%),[2]; [7],27.2%
same,TETRAS mADL Mean CFB (SD),[2]; [7],87.71 (126.281)
same,"TETRAS ADL, Mean",[2]; [8],22.17
same,"TETRAS CULS, Mean",[2]; [8],19.33
same,"TETRAS PS Item 6: Archimedes Spiral (Left), Mean",[2]; [8],1.75
same,"TETRAS PS Item 6: Archimedes Spiral (Right), Mean",[2]; [8],1.75
same,"TETRAS PS Item 7: Handwriting, Mean",[2]; [8],1.75
same,"TETRAS PSTS, Mean",[2]; [8],22.83
same,"TETRAS ULS, Mean",[2]; [8],10.25
same,"TETRAS mADL (TETRAS modified total score), Mean",[2]; [8],12.17
same,"TETRAS ADL score, LS mean difference (Formula (I)—Placebo)","[2]; Part B RWD, Day 56",−9.578
same,"TETRAS combined upper limb score, LS mean difference (Formula (I)—Placebo)","[2]; Part B RWD, Day 56",−1.896
same,"TETRAS upper limb score, LS mean difference (Formula (I)—Placebo)","[2]; Part B RWD, Day 56",−0.253
same,"mADL total score, LS mean difference (Formula (I)—Placebo)","[2]; Part B RWD, Day 56",−8.439
same,"TETRAS ADL score, LS mean change from randomization baseline (Day 42)",[2]; [9],0.877
same,"TETRAS combined upper limb score, LS mean change from randomization baseline (Day 42)",[2]; [9],1.525
same,"TETRAS upper limb score, LS mean change from randomization baseline (Day 42)",[2]; [9],0.716
same,increase in combined upper limb tremor amplitude,[2]; [9],14.7%
same,increase in upper limb tremor amplitude,[2]; [9],12.8%
same,"mADL total score, LS mean change from randomization baseline (Day 42)",[2]; [9],1.350
same,Dry eye,[3]; 5 mg,1 (12.5%) n (%)
same,Eye disorders,[3]; 5 mg,2 (25.0%) n (%)
same,General Disorders and Administration Site Conditions,[3]; 5 mg,3 (37.5%) n (%)
same,Headache,[3]; 5 mg,2 (25.0%) n (%)
same,Lethargy,[3]; 5 mg,1 (12.5%) n (%)
same,Medical device site dermatitis,[3]; 5 mg,1 (12.5%) n (%)
same,Nervous System Disorders,[3]; 5 mg,2 (25.0%) n (%)
same,Participants with at least one TEAE,[3]; 5 mg,5 (62.5%) n (%)
same,Vessel puncture site thrombosis,[3]; 5 mg,1 (12.5%) n (%)
same,Dry eye,[3]; 10 mg,2 (25.0%) n (%)
same,Eye disorders,[3]; 10 mg,2 (25.0%) n (%)
same,General Disorders and Administration Site Conditions,[3]; 10 mg,3 (37.5%) n (%)
same,Headache,[3]; 10 mg,0 n (%)
same,Lethargy,[3]; 10 mg,0 n (%)
same,Medical device site dermatitis,[3]; 10 mg,2 (25.0%) n (%)
same,Nervous System Disorders,[3]; 10 mg,0 n (%)
same,Participants with at least one TEAE,[3]; 10 mg,5 (62.5%) n (%)
same,Vessel puncture site thrombosis,[3]; 10 mg,1 (12.5%) n (%)
same,Dry eye,[3]; 20 mg,0 n (%)
same,Eye disorders,[3]; 20 mg,0 n (%)
same,General Disorders and Administration Site Conditions,[3]; 20 mg,1 (12.5%) n (%)
same,Headache,[3]; 20 mg,1 (12.5%) n (%)
same,Medical device site dermatitis,[3]; 20 mg,0 n (%)
same,Nervous System Disorders,[3]; 20 mg,1 (12.5%) n (%)
same,Participants with at least one TEAE,[3]; 20 mg,3 (37.5%) n (%)
same,Vessel puncture site thrombosis,[3]; 20 mg,0 n (%)
same,Dry eye,[3]; Overall 5-20 mg,3 (37.5%) n (%)
same,Eye disorders,[3]; Overall 5-20 mg,3 (37.5%) n (%)
same,Headache,[3]; Overall 5-20 mg,3 (37.5%) n (%)
same,Lethargy,[3]; Overall 5-20 mg,2 (25.0%) n (%)
same,Medical device site dermatitis,[3]; Overall 5-20 mg,3 (37.5%) n (%)
same,Nervous System Disorders,[3]; Overall 5-20 mg,3 (37.5%) n (%)
same,Participants with at least one TEAE,[3]; Overall 5-20 mg,7 (87.5%) n (%)
same,Vessel puncture site thrombosis,[3]; Overall 5-20 mg,2 (25.0%) n (%)
same,tolerability,[4],not tolerated
